Seven molecules from ChEMBL document CHEMBL4000154, “Pyristriatins A and B: Pyridino-Cyathane Antibiotics from the Basidiomycete Cyathus cf. striatus” (J Nat Prod, 2016) can be followed below.

The test system of assay [1] is HUVEC. Kind of assay: Cytotoxicity against HUVEC after 5 days by MTT assay. Conditions: Homo sapiens, 120 h. Format: cell-based. (Tetrazolium dyes change colour on reduction, which living cells bring about.)
For assay [2], the system named is KB 3-1. Kind of assay: Cytotoxicity against human KB 3.1 cells after 5 days by MTT assay. Format: functional, cell-based. Conditions: KB 3-1, 120 h.
The subject of assay [3] is Bacillus subtilis. Nature of the assay: Antibacterial activity against Bacillus subtilis DSM 10 after 24 to 48 hrs by serial dilution method. Format: functional.
The test system of assay [4] is Escherichia coli. Kind of assay: microbe, parasite or virus in culture. The note with it: DSM 498.
Description: (§1) Antibacterial activity against Escherichia coli DSM 498 after 24 to 48 hrs by serial dilution method
Assay [5] concerns Chromobacterium violaceum. Nature of the assay: Antibacterial activity against Chromobacterium violaceum DSM 30191 after 24 to 48 hrs by serial dilution method. Format: functional.
The subject of assay [6] is Micrococcus luteus. Kind of assay: Antibacterial activity against Micrococcus luteus DSM 1790 after 24 to 48 hrs by serial dilution method. Format: functional.
For assay [7], the system named is Staphylococcus aureus. Nature of the assay: Antibacterial activity against Staphylococcus aureus DSM 346 after 24 to 48 hrs by serial dilution method. Format: functional.
Assay [8] relates to L929. Nature of the assay: Cytotoxicity against mouse L929 cells after 5 days by MTT assay. Format: cell-based. Conditions: L929, 120 h.
Assay [9] relates to Pseudomonas aeruginosa. Nature of the assay: Antibacterial activity against Pseudomonas aeruginosa PA14 after 24 to 48 hrs by serial dilution method. Format: functional.
The test system of assay [10] is Candida albicans. Kind of assay: Antifungal activity against Candida albicans DSM 1665 after 24 to 48 hrs by serial dilution method. Format: functional.
Assay [11] relates to Mucor plumbeus. Nature of the assay: Antifungal activity against Mucor plumbeus MUCL 49355 after 24 to 48 hrs by serial dilution method. Format: functional.
The test system of assay [12] is Wickerhamomyces anomalus. Kind of assay: Antifungal activity against Pichia anomala DSM 6766 after 24 to 48 hrs by serial dilution method. Format: functional.
For assay [13], the system named is Rhodotorula glutinis. Kind of assay: Antifungal activity against Rhodotorula glutinis DSM 10134 after 24 to 48 hrs by serial dilution method. Format: functional.
For assay [14], the system named is Schizosaccharomyces pombe. Kind of assay: Antifungal activity against Schizosaccharomyces pombe DSM 70572 after 24 to 48 hrs by serial dilution method. Format: functional.
In assay [15] the test system is Escherichia coli. The note with it: DSM 498.
Description: as §1

In brackets after ≈: the same amount, converted by molar mass. Activity calls are given as the source filed them. No cut-off for these calls is given here.

For `C/C(=C\c1csc(C)n1)[C@@H]1C[C@@H]2O[C@]2(C)CCC[C@H](C)[C@H](O)[C@@H](C)C(=O)C(C)(C)[C@@H](O)CC(=O)O1` [PATUPILONE], the results for the IC50 in assay [1] and in [2] were 0.00055 µM and 0.00022 µM, respectively.

Take `O=C(O)c1cn(C2CC2)c2cc(N3CCNCC3)c(F)cc2c1=O` [CIPROFLOXACIN]: the MIC in [3] and in assay [4] was no more than 2.3 µg/mL each time.

As to `CN(C)[C@@H]1C(O)=C(C(N)=O)C(=O)[C@@]2(O)C(O)=C3C(=O)c4c(O)cccc4[C@@](C)(O)[C@H]3[C@H](O)[C@@H]12` [OXYTETRACYCLINE], the MIC in assay [5] came out at 2.1 µg/mL (≈ 4.56 µM); in assay [6], 8.3 µg/mL (≈ 18 µM); in assay [7], 1 µg/mL (≈ 2.17 µM).

Regarding `C/C(=C\c1csc(C)n1)[C@@H]1C[C@@H]2O[C@@H]2CCC[C@H](C)[C@H](O)[C@@H](C)C(=O)C(C)(C)[C@@H](O)CC(=O)O1` [EPOTHILONE A], the IC50 in assay [8] is 0.0038 µM.

Regarding `CO[C@@H]1O[C@H]2c3c(cnc(C(=O)CO)c31)C[C@H](O)[C@@H]1C3=C(C(C)C)CC[C@]3(C)CC[C@@]21C`, the MIC in assay [3] amounted to 9.4 µg/mL (≈ 21.3 µM); in assay [6] it was 8.3 µg/mL (≈ 18.8 µM); in assay [7], 8.3 µg/mL (≈ 18.8 µM); in assay [11], 150 µg/mL (≈ 340 µM); in [13], 8.3 µg/mL (≈ 18.8 µM); in assay [14], 8.3 µg/mL (≈ 18.8 µM). Moreover, the MIC result in [5], in assay [9], in [10], in assay [12] and in assay [15] was “inactive” each time. Further, the IC50 in assay [1] was 6.3 µM; in [2], 12.7 µM; in assay [8], 15.4 µM.

On to NYSTATIN, for which the MIC in [10] came out at 16.7 µg/mL; in assay [11], 9.4 µg/mL; in assay [12], 16.7 µg/mL; in assay [13], 66.7 µg/mL; in assay [14] it was 66.7 µg/mL.

As for `CO[C@H]1O[C@H]2c3c(cnc(C(=O)CO)c31)C[C@H](O)[C@@H]1C3=C(C(C)C)CC[C@]3(C)CC[C@@]21C`, the MIC in [3] came out at 9.4 µg/mL (≈ 21.3 µM); in [6], 16.7 µg/mL (≈ 37.8 µM); in assay [7], 16.7 µg/mL (≈ 37.8 µM); in [11] it was 150 µg/mL (≈ 340 µM); in [13] it was 16.7 µg/mL (≈ 37.8 µM); in assay [14] it was 16.7 µg/mL (≈ 37.8 µM). The MIC result in [5], in [9], in assay [10], in [12] and in assay [15] was “inactive” throughout. The results for the IC50 in [1], in [2] and in [8] were 5.9 µM, 14.7 µM and 16.3 µM, respectively.

A word on the IC50: it is the concentration that gives 50% inhibition. A higher IC50 goes with weaker potency.
